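Step 1: Grow cells in 96-well plates. Step 2: Expose to compound for 48 hours at 5 concentrations. Step 3: Interpolate endpoints linearly; if unreached, use highest concentration. Abbreviation: GI50, concentration required for 50% inhibition of growth. At the TGI there is no net growth.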
Key:
Assay in all cases: inhibition of tumour cell growth, NCI panel, 48 h
U251 CNS = tested on: U251 CNS
KM12 colon = tested on: KM12 colon
CAKI-1 renal = tested on: CAKI-1 renal
K-562 leukemia = tested on: K-562 leukemia
HL-60(TB) leukemia = tested on: HL-60(TB) leukemia
HCC-2998 colon = tested on: HCC-2998 colon
OVCAR-5 ovarian = tested on: OVCAR-5 ovarian
SK-MEL-2 melanoma = tested on: SK-MEL-2 melanoma
SK-MEL-5 melanoma = tested on: SK-MEL-5 melanoma
RXF 393 renal = tested on: RXF 393 renal

Structure (SMILES)	TGI (U251 CNS) [µM]	TGI (KM12 colon) [µM]	TGI (CAKI-1 renal) [µM]	TGI (K-562 leukemia) [µM]	TGI (HL-60(TB) leukemia) [µM]	TGI (HCC-2998 colon) [µM]	TGI (OVCAR-5 ovarian) [µM]	TGI (SK-MEL-2 melanoma) [µM]	TGI (SK-MEL-5 melanoma) [µM]	GI50 (U251 CNS) [µM]	GI50 (KM12 colon) [µM]	GI50 (CAKI-1 renal) [µM]	GI50 (K-562 leukemia) [µM]	GI50 (HL-60(TB) leukemia) [µM]	GI50 (OVCAR-5 ovarian) [µM]	GI50 (RXF 393 renal) [µM]	TGI (RXF 393 renal) [µM]	GI50 (SK-MEL-2 melanoma) [µM]	GI50 (SK-MEL-5 melanoma) [µM]	GI50 (HCC-2998 colon) [µM]
C=C1C(=O)OC2(C)CCC1CC1OC1(C)CCC=C(C)CCC2O (configuration not stated)	> 100	> 100	> 100	> 100	> 100	> 100	> 100	> 100	> 100											
C=CCCC(=O)CC(=O)OCc1ccccc1	> 100	> 100	> 100	> 100	> 100	> 100	> 100	> 100	> 100											
C1CC[N-]CC1.CC(=N\O)/C(C)=N/O.CC(=N\O)/C(C)=N/O.C[CH-]C(C)O.[Co+2]	31.5	> 100	57.8	45.8	45.7		> 100	34.9	43.1	17.7	34.3	24	19.3	14.5	35.1	15	43.8	17.9	20.1	
COc1ccc2c(c1)C=CC1C2CC[C@]2(C)C(NC(=O)/C=C/c3ccc(O)c(O)c3)CCC12 (some centres not stated)			24.7	49.6	23.8	34.6	38.9	62.1	40.1			7.1	13.9	5.01	20.1	17.6	45.8	25.7	14.9	14.4
C=CCO[C@H]1CC[C@@]2(C)C(CC[C@]3(C)C2CC=C2[C@@H]4[C@@H](C)C(C)CC[C@]4(C(=O)O)CCC23C)C1(C)C (some centres not stated)	30.3	30.5	33.2	28.6	22	32.4			31.8								22.8			
CN1CCN(c2nc3cc(F)ccc3n3cccc23)CC1	> 100	> 100	79	> 100	> 100	> 100	> 100		38								> 100			
CC1=C2C3OC(=O)C(C)C3C(O)C[C@@]2(C)C(=O)CC1 (some centres not stated)	> 100	> 100	> 100		> 100	> 100	> 100		> 100								> 100			
CC(=O)[O][Hg][c]1s[c]([Hg][O]C(C)=O)[c]([Hg][O]C(C)=O)[c]1[Hg][O]C(C)=O		> 100		18.8	> 100	40.1			3.12		22.6		1.3	5.12		13.1	28.6	2.19	1.24	14.6
O=C1C(=Cc2ccc(F)cc2)C(=O)c2ccccc21	> 100	> 100	> 100	> 100	> 100	> 100	> 100	> 100	> 100											
CCSc1nc(N)c2cnn(CC)c2n1	86	> 100	56.3	> 100	32.5		> 100	5.88	8.05	4.12	3.15	4.63	9.11	2.33	27.1	2.98	7.14	2.12	2.58	
COC(=O)C(=O)C(C#N)c1c(Cl)cccc1Cl (configuration not stated)			> 100	> 100	> 100		> 100	> 100	> 100								> 100			
C/C(=N\Nc1n[nH]c(=S)n1N)c1c(O)cc(C)oc1=O	> 100	> 100	> 100	> 100	> 100	> 100		> 100												
CN(C)Cc1cc(C(C)(C)C)cc(CN(C)C)c1O	> 100	> 100	> 100	> 100		52.2	> 100	> 100	> 100								> 100			
Cc1ccc([N+]2=NC(c3ccccc3)=NN(c3ccccc3)C2)cc1	> 100	> 100		> 100	> 100	> 100	> 100		73.6								> 100			
COC(=N)CCCl	> 100	> 100	> 100	> 100	> 100	> 100	> 100		> 100								> 100			
